Read-outs that look alike come from different tables or passages of the source.
Test system: influenza virus A/Taiwan/1/86 (H1N1)
Test: organism not typed
Type: cell-based
Details: 72 h, MDCK cells infected by influenza A/Taiwan/1/86 (H1N1), three days post-virus exposure, ATP levels
[1] = read-out: FLU-AVE-MDCK-ATP-TW_EC50
[2] = read-out: FLU-AVE-MDCK-ATP-TW_pEC50 (converted)

SMILES | EC50 [1] [nM] | EC50 [2] [nM]
CC(C)(c1nccs1)C(CC(=O)O)Nc1nc(-c2c[nH]c3ncc(Cl)cc23)c(C#N)cc1F (stereo not drawn) | 0.267 | 0.251
C=CCC(C)(C)C(CC(=O)O)Nc1nc(-c2c[nH]c3ncc(Cl)cc23)c(C#N)cc1F (stereo not drawn) | 1 | 1
CC1(C(CC(=O)O)Nc2nc(-c3c[nH]c4ncc(Cl)cc34)ncc2F)COC1 (stereo not drawn) | 982 | 1000
CC(C)(c1ccccn1)[C@H](CC(=O)O)Nc1nc(-c2c[nH]c3ncc(Cl)cc23)c(C#N)cc1F (single isomer, unassigned) | 0.075 | 0.00631
CC(C)(c1ccccn1)C(CC(=O)O)Nc1nc(-c2c[nH]c3ncc(Cl)cc23)c(C#N)cc1F (stereo not drawn) | 0.47 | 
CC(C)(c1cccs1)C(CC(=O)O)Nc1nc(-c2c[nH]c3ncc(Cl)cc23)ncc1F (stereo not drawn) | 2.54 | 2.51
CC(C)(c1ccccn1)C(CC(=O)O)Nc1nc(-c2c[nH]c3ncncc23)ncc1F (stereo not drawn) | 1890 | 
Cn1ccc(C(C)(C)C(CC(=O)O)Nc2nc(-c3c[nH]c4ncc(Cl)cc34)c(C#N)cc2F)n1 (stereo not drawn) | 2.56 | 2.51
CC(C)(c1ccccn1)[C@@H](CC(=O)O)Nc1nc(-c2c[nH]c3ncc(Cl)cc23)c(C#N)cc1F (single isomer, unassigned) | 5.4 | 5.01
CC(C)(c1cccs1)C(CC(=O)O)Nc1nc(-c2c[nH]c3ncc(Cl)cc23)c(C#N)cc1F (stereo not drawn) | 0.57 | 0.631

Source: patent publication US10526338B2, “Functionalized pentanoic acids for use influenza viral infections” (Janssen Sciences Ireland UC, priority 2016, dated 2020)
